# Results published in patent publication US8299111B2, “Compounds which modulate the CB2 receptor” (Boehringer Ingelheim International GmbH, priority 2006, dated 2012).
# Molecular target: T1, human CB2R (Homo sapiens, UniProt P34972)
# T1 construct: host or cells: CHO cells
# Test: CB2R mediated modulation of cAMP synthesis
# Assay type: cell-based
# Conditions: found through the use of the above described assays (binding and cAMP); CHO cells expressing human CB2R, forskolin-stimulated cAMP
# In short: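 CHO cells expressing human CB2R were treated for 30 min at 37 °C with compound in buffer containing 1 mM IBMX, 0.25% BSA and 10 uM forskolin. cAMP was measured after lysis. EC50 is the concentration giving 50% inhibition of forskolin-stimulated cAMP, scaled to the level set by 1 uM CP55940, fitted by four-parameter logistic.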
# T1 sequence (P34972 whole entry): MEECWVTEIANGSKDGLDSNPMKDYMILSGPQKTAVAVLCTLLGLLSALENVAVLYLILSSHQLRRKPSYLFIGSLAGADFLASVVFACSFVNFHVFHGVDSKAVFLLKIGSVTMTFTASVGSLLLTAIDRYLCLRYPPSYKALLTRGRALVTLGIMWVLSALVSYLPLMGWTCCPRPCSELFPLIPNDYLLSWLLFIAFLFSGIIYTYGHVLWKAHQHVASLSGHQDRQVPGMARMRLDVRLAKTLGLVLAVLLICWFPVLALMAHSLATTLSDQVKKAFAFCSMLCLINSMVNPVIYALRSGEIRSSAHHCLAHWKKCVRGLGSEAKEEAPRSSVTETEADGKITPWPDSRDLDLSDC
row,SMILES,agonistic activity
1,CC(C)(C)c1cccc(NC(=O)C(C)(C)S(=O)(=O)c2ccc(C(F)(F)F)nc2)c1 [N-(3-tert-butylphenyl)-2-methyl-2-{[6-(trifluoromethyl)pyridin-3-yl]sulfonyl}propanamide],agonistic activity
2,Cn1nc(C(C)(C)C)cc1NC(=O)C(C)(C)S(=O)(=O)c1ccc(Cl)nc1 [N-(5-tert-Butyl-2-methyl-2H-pyrazol-3-yl)-2-(6-chloro-pyridine-3-sulfonyl)-2-methyl-propionamide],agonistic activity
3,CC(C)c1cc(NC(=O)C(C)(C)S(=O)(=O)c2ccc(C(F)(F)F)nc2)n(C)n1 [N-(3-isopropyl-1-methyl-1H-pyrazol-5-yl)-2-methyl-2-{[6-(trifluoromethyl)pyridin-3-yl]sulfonyl}propanamide],agonistic activity
4,CC(C)(C)c1cc(NC(=O)C(C)(C)S(=O)(=O)c2ccc(C(F)(F)F)cc2)on1 [N-(3-tert-Butyl-isoxazol-5-yl)-2-methyl-2-(4-trifluoromethyl-benzenesulfonyl)-propionamide],agonistic activity
5,CCCc1cc(NC(=O)C(C)(C)S(=O)(=O)c2ccc(OC)cc2)on1 [2-[(4-methoxyphenyl)sulfonyl]-2-methyl-N-(3-propylisoxazol-5-yl)propanamide],agonistic activity
6,CC(C)(C(=O)Nc1noc2ccccc12)S(=O)(=O)c1ccc(Cl)cc1 [N-Benzo[d]isoxazol-3-yl-2-(4-chloro-benzenesulfonyl)-2-methyl-propionamide],agonistic activity
7,Cc1nc(NC(=O)C(C(C)C)S(=O)(=O)c2ccc(C(F)(F)F)cc2)sc1C(C)(C)C (centres unmarked) [N-(5-tert-Butyl-4-methyl-thiazol-2-yl)-3-methyl-2-(4-trifluoromethyl-benzenesulfonyl)-butyramide],agonistic activity
8,"CC(C)(C(=O)Nc1nsc(-c2ccccc2)n1)S(=O)(=O)c1ccc(C(F)(F)F)nc1 [2-methyl-N-(5-phenyl-1,2,4-thiadiazol-3-yl)-2-{[6-(trifluoromethyl)pyridin-3-yl]sulfonyl}propanamide]",agonistic activity
9,Cc1nc(NC(=O)C(C)(C)S(=O)(=O)c2ccc(C(F)(F)F)nc2)sc1C(C)(C)C [N-(5-tert-Butyl-4-methyl-thiazol-2-yl)-2-methyl-2-(6-trifluoromethyl-pyridine-3-sulfonyl)-propionamide],agonistic activity
10,CC(C)(C(=O)Nc1ccc2ccccc2n1)S(=O)(=O)c1ccc(Cl)cc1F [2-[(4-chloro-2-fluorophenyl)sulfonyl]-2-methyl-N-quinolin-2-ylpropanamide],agonistic activity
11,CC(C)(C(=O)Nc1cccc(C(F)(F)F)c1)S(=O)(=O)c1ccc(C(F)(F)F)nc1 [2-methyl-N-[3-(trifluoromethyl)phenyl]-2-{[6-(trifluoromethyl)pyridin-3-yl]sulfonyl}propanamide],agonistic activity
12,Cc1ccc(S(=O)(=O)C(C)(C)C(=O)Nc2cc(C(C)(C)C)on2)cc1 [N-(5-tert-Butyl-isoxazol-3-yl)-2-methyl-2-(toluene-4-sulfonyl)-propionamide],agonistic activity
13,CC(C)(C(=O)Nc1nc(C2CC2)cs1)S(=O)(=O)c1ccc(Cl)cc1 [2-(4-Chloro-benzenesulfonyl)-N-(4-cyclopropyl-thiazol-2-yl)-2-methyl-propionamide],agonistic activity
14,Cc1nc(NC(=O)C2(S(=O)(=O)c3ccc(C(F)(F)F)cc3)CCC2)sc1C(C)(C)C [1-(4-Trifluoromethyl-benzenesulfonyl)-cyclobutanecarboxylic acid (5-tert-butyl-4-methyl-thiazol-2-yl)-amide],agonistic activity
15,"CC(C)(C)c1nnc(NC(=O)C(C)(C)S(=O)(=O)c2ccc(C(F)(F)F)nc2)s1 [N-(5-tert-butyl-1,3,4-thiadiazol-2-yl)-2-methyl-2-{[6-(trifluoromethyl)pyridin-3-yl]sulfonyl}propanamide]",agonistic activity
16,CC(C)(C)c1csc(NC(=O)C(C)(C)S(=O)(=O)c2ccc(F)cc2)n1 [N-(4-tert-Butyl-thiazol-2-yl)-2-(4-fluoro-benzenesulfonyl)-2-methyl-propionamide],agonistic activity
17,"CC(C)(C)c1cc(NC(=O)C(C)(C)S(=O)(=O)c2ccc3nsnc3c2)no1 [2-(Benzo[1,2,5]thiadiazole-5-sulfonyl)-N-(5-tert-butyl-isoxazol-3-yl)-2-methyl-propionamide]",agonistic activity
18,COc1ccc(S(=O)(=O)C(C)(C)C(=O)Nc2cc(C(C)(C)C)nn2C)cc1 [N-(5-tert-Butyl-2-methyl-2H-pyrazol-3-yl)-2-(4-methoxy-benzenesulfonyl)-2-methyl-propionamide],agonistic activity

# Other lines, results leading:
row,agonistic activity,SMILES
1,agonistic activity,CC(C)(C(=O)Nc1ccc(C(F)(F)F)cn1)S(=O)(=O)c1ccc(Cl)cc1 [2-(4-Chloro-benzenesulfonyl)-2-methyl-N-(5-trifluoromethyl-pyridin-2-yl)-propionamide]
2,agonistic activity,CC(C)(C)c1cc(NC(=O)C(C)(C)S(=O)(=O)c2ccc(Cl)cc2)on1 [N-(3-tert-Butyl-isoxazol-5-yl)-2-(4-chloro-benzenesulfonyl)-2-methyl-propionamide]
3,agonistic activity,COc1ccc(S(=O)(=O)C(C)(C)C(=O)Nc2ccc(C(F)(F)F)cn2)cc1F [2-(3-Fluoro-4-methoxy-benzenesulfonyl)-2-methyl-N-(5-trifluoromethyl-pyridin-2-yl)-propionamide]
4,agonistic activity,Cc1ccc(S(=O)(=O)C(C)(C)C(=O)Nc2ccc(C(F)(F)F)cn2)c(F)c1 [2-(2-Fluoro-4-methyl-benzenesulfonyl)-2-methyl-N-(5-trifluoromethyl-pyridin-2-yl)-propionamide]
5,agonistic activity,COc1ccc(S(=O)(=O)C(C)(C)C(=O)Nc2cc(-c3cccs3)nn2C)cc1 [2-(4-Methoxy-benzenesulfonyl)-2-methyl-N-(2-methyl-5-thiophen-2-yl-2H-pyrazol-3-yl)-propionamide]
6,agonistic activity,CC(C)(C(=O)Nc1nc(CN2CCCCC2)cs1)S(=O)(=O)c1ccc(Cl)cc1 [2-(4-Chloro-benzenesulfonyl)-2-methyl-N-(4-piperidin-1-ylmethyl-thiazol-2-yl)-propionamide]
7,agonistic activity,"CC(C)(C(=O)Nc1nc(-c2ccc(Cl)cc2)cs1)S(=O)(=O)c1ccc(Cl)cc1F [2-[(4-chloro-2-fluorophenyl)sulfonyl]-N-[4-(4-chlorophenyl)-1,3-thiazol-2-yl]-2-methylpropanamide]"
8,agonistic activity,"CC(C)(C(=O)Nc1nnc(C(F)(F)F)s1)S(=O)(=O)c1ccc(Cl)cc1 [2-(4-Chloro-benzenesulfonyl)-2-methyl-N-(5-trifluoromethyl-[1,3,4]thiadiazol-2-yl)-propionamide]"
9,agonistic activity,"Cc1cc(NC(=O)C(C)(C)S(=O)(=O)c2ccc(Cl)cc2)n(C)n1 [2-(4-Chloro-benzenesulfonyl)-N-(2,5-dimethyl-2H-pyrazol-3-yl)-2-methyl-propionamide]"
10,agonistic activity,Cn1nc(C2CC2)cc1NC(=O)C(C)(C)S(=O)(=O)c1ccc(Cl)cc1 [2-(4-Chloro-benzenesulfonyl)-N-(5-cyclopropyl-2-methyl-2H-pyrazol-3-yl)-2-methyl-propionamide]
11,agonistic activity,CCCc1cc(NC(=O)C(C)(C)S(=O)(=O)c2ccc(Cl)cc2F)on1 [2-[(4-chloro-2-fluorophenyl)sulfonyl]-2-methyl-N-(3-propylisoxazol-5-yl)propanamide]
12,agonistic activity,CC(C)(C(=O)Nc1cc2ccccc2cn1)S(=O)(=O)c1ccc(Cl)cc1 [2-(4-Chloro-benzenesulfonyl)-N-isoquinolin-3-yl-2-methyl-propionamide]
13,agonistic activity,Cc1ccc(NC(=O)C(C)(C)S(=O)(=O)c2ccc(Cl)cc2F)nc1 [2-[(4-chloro-2-fluorophenyl)sulfonyl]-2-methyl-N-(5-methylpyridin-2-yl)propanamide]
14,agonistic activity,COc1ccc(S(=O)(=O)C(C)(C)C(=O)Nc2cnc3ccccc3c2)cc1 [2-(4-Methoxy-benzenesulfonyl)-2-methyl-N-quinolin-3-yl-propionamide]
15,agonistic activity,CC(C)(C(=O)Nc1cc2ccccc2cn1)S(=O)(=O)c1ccc(Cl)cc1F [2-[(4-chloro-2-fluorophenyl)sulfonyl]-N-isoquinolin-3-yl-2-methylpropanamide]
16,agonistic activity,CC(C)(C(=O)Nc1cccc(Cl)c1)S(=O)(=O)c1ccc(Cl)cc1 [2-(4-Chloro-benzenesulfonyl)-N-(3-chloro-phenyl)-2-methyl-propionamide]
17,agonistic activity,CC(C)(C(=O)Nc1nc(C2CCCCC2)cs1)S(=O)(=O)c1ccc(Cl)cc1 [2-(4-Chloro-benzenesulfonyl)-N-(4-cyclohexyl-thiazol-2-yl)-2-methyl-propionamide]
18,agonistic activity,CC(C)(C(=O)Nc1ccc2ccccc2n1)S(=O)(=O)c1ccc(C(F)(F)F)nc1 [2-methyl-N-quinolin-2-yl-2-{[6-(trifluoromethyl)pyridin-3-yl]sulfonyl}propanamide]
19,agonistic activity,CC(C)(C)c1csc(NC(=O)C(C)(C)S(=O)(=O)c2cccnc2)n1 [N-(4-tert-Butyl-thiazol-2-yl)-2-methyl-2-(pyridine-3-sulfonyl)-propionamide]
20,agonistic activity,CC(C)(C(=O)Nc1ccc(Cl)cc1)S(=O)(=O)c1ccc(Cl)cc1 [2-(4-Chloro-benzenesulfonyl)-N-(4-chloro-phenyl)-2-methyl-propionamide]
